Patent US9180107B2 (NANOPHARMACEUTICALS LLC, priority 2009, dated 2015)
Where two headings read alike, the source gives them in different places.

Tests used:
[1] = system: Human glioblastoma U87MG cells; experiment: Anti-proliferation (total cell counts) in bellows cell culture system with pharmacodynamic modeling; type: cell-based; settings: for decrease in cell counts compared with untreated control cells: 7-d treatment; for IC50: Homo sapiens, U-87 MG, nano-tetrac IC50 are hypothetical concentrations assuming all bound tetrac is available
Protocol: Each cell culture system is a compressible (bellows) 500 mL bottle which contains cell culture medium and specially-treated polymer flakes to which cells spontaneously attach and grow. Through moving bellows and porous membranes, the level of the medium in the bottle changes periodically. Consequently, the cells are alternately submerged in the culture medium, then exposed to 5% CO2/95% air which creates a dynamic interface between air and medium on the cell surface that maximizes nutrient uptake and oxygen transfer. The system provides a low shear, high aeration and foam-free culture environment. Proprietary treatment of the surfaces of the flakes enables seating and harvesting of cells and secreted proteins are readily isolated from the perfusate.
In a non-perfusion bellows cell culture system that was also used, the medium in each bottle was replaced by fresh medium every 24 h. In the perfusion bellows cell culture system, medium was progressively refreshed over 24 h, i.e., one complete change of medium occurred over 24 h.
In establishing the system, 5×10^7 cells were seeded in perfusion and non-perfusion bellows bottles and incubated overnight at 37° C. After that, flakes were harvested, trypsinized and cells were collected. Cell numbers were counted. The numbers of cells that attached to were 10-15×10^6 per bottle. For experiments, the perfusion bellows cell culture system was run for 2 d prior to starting experiments. The cell numbers at this point were about 30-50×10^6 cells/bottle. Cell cultures were then exposed to 1% FBS-containing medium. Tetrac or nano-tetrac was added to the medium in the reservoir bottle to achieve the final concentrations reported for each experiment.
The time course of cell counts of the various cancer lines treated with different concentrations of tetrac or nano-tetrac was modeled by utilizing the pooled approach in NONMEM VI (version 6.2). All time points and treatment arms within each experiment were modeled simultaneously. A mechanism-based model (see Bulitta et al., 2009. Antimicrob. Agents Chemother. 53:46-56) was adapted to describe the proliferation of cancer cells and the inhibition of proliferation by tetrac. This model assumes two populations of cells in different phases of the cell cycle: cells that are preparing for replication (phase 1) and cells that are immediately “pre-replication” (phase 2). Cells transition from phase 1 to phase 2 by a first-order growth rate constant, while replication from phase 2 to phase 1 is assumed to be fast (see FIG. 2).
[formula] [formula] [formula] where C1 is the number of cells in phase 1, C2 the number of cells in phase 2, k21 the first order rate constant for replication (transition from phase 2 to phase 1), and k12 the first-order growth rate constant for transition from phase 1 to phase 2. The total number of cells Ct is the sum of C1 and C2. Rep is the replication efficiency factor which is described by:
[formula] where Cmax is the maximum number of cells. Without tetrac, the replication efficiency factor approaches 2, which reflects a 100% probability of successful replication. InhR describes the inhibitory effect of tetrac on the probability of successful replication:
[formula] Where ImaxR is the maximum effect of tetrac on probability of successful replication and IC50R is the tetrac concentration needed to achieve a half-maximal effect. Inhk describes the inhibitory effect of tetrac on the rate of growth:
[formula] Where Imaxk is the maximum effect of tetrac on rate of growth and IC50k is the tetrac concentration needed to achieve a half-maximal effect. Results

MDA-MB cells = experiment: Apoptosis by flow cytometry (FACS) in perfusion bellows culture; type: cell-based, human; settings: for induced apoptosis compared to untreated control: day 2
Protocol: MDA-MB cells grown in perfusion bellows cell culture were treated with different concentrations of tetrac (10^−7 M to 10^−5 M) daily. Cells were harvested on the day indicated. Two million cells of each sample were prepared for flow cytometry. Flow cytometry was conducted as described in Example 1, infra.
Cells were harvested from flakes by trypsinization, washed with PBS and were resuspended in 200 μL PBS (1×10^5-1×10^6 cells). To quantify cellular DNA content, cells were permeabilized by fixation with 70% ethanol for 30 min at 4° C. Samples can be stored in 70% ethanol at −20° C. for several weeks prior to propidium iodide (PI) staining and flow cytometric analysis. If cellular DNA quantification was performed on the same day of cell harvest, the cells were washed after permeabilization in PBS and resuspended in 500 μL PBS. Then 2.5 μL RNase (DNase-free) was added to the cell suspension and incubation was carried out at 37° C. for 30 min. The cell suspension was chilled on ice to 4° C. and 50 μL propidium iodide (PI) was added to the cell suspension. Samples were then kept in the dark at room temperature for 30 min, after which they were subjected to flow cytometry. Samples were analyzed on FACSCalibur™ (Becton Dickinson), using CellQuest software to determine DNA content. Fluorescence-activated cell sorting (FACS) analysis was performed using Annexin V-FITC and PI. The relative percentages of cells in G1, S, or G2/M phase were calculated from FL-2 histograms using ModFit LT software.
Cells were harvested for FACS analysis 1-5 d after treatment with 10^−7 to 10^−5 M tetrac. […] (See FIG. 7). By day 2, tetrac, 10^−7M and 10^−6M, induced apoptosis by 2.5-fold as compared to untreated control. Similar results were obtained after 4 d of treatment of tetrac. […] (See FIG. 7).

[2] = system: monkey kidney epithelial CV-1 cells; experiment: Proliferation of non-malignant cells; type: cell-based, African green monkey; settings: 10^−6M daily for 7 days
Protocol: FIG. 9 is a series of graphs showing the comparison of nano-tetrac and tetrac on cell proliferation in non-malignant cells. CV-1 cells (FIG. 9A) and 293 T cells (FIG. 9B) were treated daily with 10^−6 M tetrac or nano-tetrac. Cells were harvested at the time points indicated. Total cell numbers taken after each treatment were used as an indicator for tetrac- or nano-tetrac-induced anti-proliferation.
In order to confirm that tetrac and nano-tetrac only suppress cell proliferation in cancer cells, tetrac and nano-tetrac were also examined for potential anti-proliferative effects on immortalized non-malignant cells, using monkey kidney epithelial CV-1 cells and human embryonic kidney 293T cells. The cells were treated daily with either 10^−6M tetrac or 10^−6M nano-tetrac for 7 days, then were harvested, counted and examined microscopically.

[3] = U87MG, model parameter estimate

Structure (SMILES): O=C(O)Cc1cc(I)c(Oc2cc(I)c(O)c(I)c2)c(I)c1 [tetrac, Tetraiodothyroacetic acid]
- decrease in cell counts compared with untreated control cells ([1]; 10^−7 M): > 28%
- decrease in cell counts compared with untreated control cells ([1]; 10^−8 M): more than 15%
- IC50 ([1]; U87MG, model parameter estimate, read-out: IC50R (effect on success of replication)): 47.4 µM
- IC50 ([1]; U87MG, model parameter estimate, read-out: IC50k (effect on rate of growth)): 0.047 µM
- ImaxR (maximum effect on success of replication) [1, 3]: 0.92
- Imaxk (maximum effect on rate of growth) [1, 3]: 0.57
- increase of apoptotic cells compared to untreated control cells (MDA-MB cells; 10^−5 M, 1 d): 10 fold
- induced apoptosis compared to untreated control (MDA-MB cells; 10^−6M): 2.5 fold
- induced apoptosis compared to untreated control (MDA-MB cells; 10^−7M): 2.5 fold
- change in cell numbers and morphology vs untreated control [2]: no significant change
